According to patent US11351185B2, “Use of isovalerylspiramycins as anti-cancer agents to inhibit metastasis” (priority 2020, dated 2022):
“Also recorded” adds a separate entry of the source.

Experiments:
intracellular ROS = assay: ROS-Glo H2O2 assay; assay type: cell-based; details: 24 hours
Protocol: (§1) Since glutathione peroxidase catalyzes the reduction of reactive oxidative species (ROS), the inventors assessed whether treatment with ISP I increased the generation of ROS in glioblastoma cell lines (LN229 and U251) and RCC cell lines (786-O and RCC4).
Cell ROS level change brought about by ISP I was measured by ROS-Glo H2O2 assay kit, a product of Promega (Madison, Wis. USA). After treatment with ISP I for 24 hours, H2O2 substrate was added and cells were incubated for 6 hours. After incubation the supernatant was collected and was incubated with ROS-Glo™ Detection Solution for 20 min at room temperature with protection from light. Luciferase data were obtained with the Synergy H1 microplate reader, a product of BioTek (Winooski, Vt. USA).

786-O tumors = assay: 786-O subcutaneous xenograft mouse model; assay type: in vivo, NSG mice; details: 35 mg/kg i.p. daily; 18 days after treatment
Protocol: For subcutaneous xenografts, NSG mice (6-8 weeks old) from the NCI-Frederick animal facility and Jackson Lab (Bar Harbor, Me. USA) were injected with 5×10^6 to 1×10^7 cells subcutaneously in the flank. One week later, the tumor-bearing mice were randomly assigned to different groups and made the tumor volume baseline equivalent and treated with normal saline or Zenomycin (35 mg/kg) everyday intraperitoneally. Tumors were measured using a caliper, and volume was calculated.

[1] = system: murine B16 cells (lung metastasis); assay: B16 melanoma lung metastasis mouse model; assay type: in vivo, C57BL/6 mice; details: 35 mg/kg i.p. every day, 12 days; vs saline
Protocol: In addition to the aforementioned xenograft tumor models, the anti-tumor activity of ISP I was assessed in a metastatic murine melanoma (B16) model.
For metastasis study, C57BL/6 mice (4-5 weeks) from Charles River Laboratories (Wilmington, Mass. USA) were assigned randomly to one or another of two groups, 9 animals per group. B16-F10 mouse skin melanoma cells (2×10^5) were resuspended in 100 μl saline and injected through tail vein. After treatment with ISP I at 35 mg/kg for 12 days, all mice were euthanized, and the lungs were examined for counting black metastasis dots.

786-O and RCC4 cells = assay: Cell-cycle analysis by flow cytometry, RCC cells; assay type: cell-based
Protocol: To confirm the cytotoxic effect observed in the glioblastoma cell lines, the inventors assessed ISP I's effect on renal cell carcinoma (RCC) cell lines (ACHN, UM-RC-2, RCC4 and 786-0). Cell viability was assessed similarly via CKK8 analysis. […] (FIG. 4C, D).
For monitoring cell-cycle arrest of ISP I-treated cells, Click-iT EdU Flow Cytometry Assay Kits were used, a product of ThermoFisher Scientific. Cells were co-cultured with EdU at a concentration of 10 μM for 1 hour. After fixation and permeabilization, EdU-positive cells were labeled with Alexa Fluor 647 fluorescein. DAPI also was used for measuring total DNA content to identify differences in cell cycle phases. Data were collected by means of a BD LSRFortessa flow cytometer using FlowJo software. Cells that are positive with EdU and DAPI were in S-Phase of the cell cycle.

human cancer lines = details: MCF-7, MDA-MB-231, HepG2, A549, H460, H1299, 786-0, 769-P, U251, A172, U937, HeLa, PC3, PANC-1, TE-1, SGC-7901, HT-29, HL-60; cited from earlier work
[2] = system: mitochondrial ROS (superoxide); assay: MitoSOX staining, flow cytometry; assay type: cell-based; details: 24 hours
Protocol: as §1
To detect changes in mitochondrial superoxide after treatment with ISP I, the inventors used the MitoSOX Red mitochondrial superoxide indicator kit, a product of ThermoFisher Scientific. […] Cells were incubated with 5 μM MitoSOX Red for 15 min at room temperature, followed by flow cytometry analysis. Excitation by means of a 561 nm laser and a 610/20 discriminating filter was applied by a BD LSRFortessa flow cytometer.

[3] = system: SELH, Nucleolin, Fibrillarin, POL1, NPM, p53; assay: Nucleolar stress response, immunofluorescence and western blot; assay type: cell-based; details: LN229
Protocol: SELH is localized in the nucleolus, which is a sensor of oxidative stress. Yang et al., Nature communications 7: 13599 (2016); Novoselov et al., J. Biol. Chem. 282: 11960 (2007). […] JNK2 activation by oxidative stress inactivated RNA polymerase I (POL1) transcription factor TIF1A in the nucleoli to down-regulate rRNA synthesis. Mayer et al., Genes Dev. 19: 933 (2005). To investigate whether the ribosomal biogenesis was disrupted by ISP I, pre-rRNA transcription was evaluated using real-time RT-PCR analysis in LN229 cells. […] To examine the mechanisms by which ISP I disrupts POL1 transcription, the inventors initially evaluated JNK2 activity and the overall state of the transcription machinery in ISP I-treated LN229 cells.
Western blotting was performed to detect the protein expression level of SELH, NRF2 and γH2AX regulated by ISP I. The cells were lysed by RIPA buffer from ThermoFisher Scientific, and the concentration was measured using DC Protein Assay, a Bio-Rad product. Equal amounts of protein of each sample were loaded for gel electrophoresis and were transferred to nitrocellulose membrane, blocked and incubated overnight at 4° C. with primary antibodies. Then the membranes were washed with TBST (3 times, 10 min each). Exposure, imaging, and data analysis were done using a KwikQuant Imager system, a product of Kindle Biosciences (Greenwich, Conn. USA). The following antibodies were used: anti-phospho-histone H2A.X (Ser139), anti-NRF2 (Cell Signaling, Danvers, Mass. USA), anti-SELH (Abcam, Cambridge, Mass. USA), anti-GAPDH (Millipore, Temecula, Calif. USA).
For immunofluorescence assay, cells were seeded on a 35-mm confocal dish with glass bottom and were treated with ISP I. After 24 hours, cells were fixed with 4% paraformaldehyde and were labeled with primary antibodies against γH2AX overnight at 4° C. Then the cells were incubated with secondary antibody conjugated with Alexa Fluor-594 (Invitrogen), followed by staining with DAPI for nuclei. Images were obtained using Zeiss LSM 780 microscopy (Carl Zeiss, Oberkochen Germany).

COC1C(O)CC(=O)OC(C)CC=CC=CC(OC2CCC(N(C)C)C(C)O2)C(C)CC(CC=O)C1OC1OC(C)C(OC2CC(C)(O)C(OC(=O)CC(C)C)C(C)O2)C(N(C)C)C1O (centres unmarked) [ISP I, 4″-isolvalerylspiramycin I]
intracellular ROS level (ROS-Glo H2O2) (intracellular ROS; 786-O and RCC4, 10 μg/ml): increased intracellular ROS levels | intracellular ROS level (ROS-Glo H2O2) (intracellular ROS; LN229 and U251, 10 μg/mL): increased intracellular ROS levels | tumor size, weight and burden (786-O tumors): reduced 786-O tumor burden; also recorded: significantly reduced tumor size and weight | lung tumor nodules (melanoma spots) [1]: significantly reduced lung tumor nodules | cell distribution in cell-cycle phases (786-O and RCC4 cells): clear G0/G1 arrest; also recorded: induced cell-cycle arrest in the G0/G1 phase | effect on proliferation in vitro of human cancer lines (human cancer lines): inhibitory effect | mitochondrial ROS (MitoSOX) ([2]; LN229 and U251, 5 μg/mL or 10 μg/mL): increase of mitochondrial ROS accumulation; also recorded: higher intracellular ROS in a dose-dependent manner | mitochondrial ROS (MitoSOX) ([2]; RCC cells 786-O and RCC4, 5 μg/ml or 10 μg/ml): increase in mitochondrial ROS accumulation; also recorded: higher intracellular ROS in a dose-dependent manner | NPM expression (western blot) [3]: decreased nucleolar protein, NPM and P53 expression in a dose dependent manner; also recorded: reduced NMP expression | SELH expression in the nucleolus (immunofluorescence) ([3]; 8 h, 10 μg/mL): loss and reduction of SELH expression in the nucleolus | nucleolar labeling of Nucleolin, Fibrillarin, POL1, NPM (immunofluorescence) ([3]; 8 h, 10 μg/mL): loss and dispersion of nucleolar proteins (Neucleolin, Fibrillarin, POL1, NPM)
